Assay results: patent US8252749B2, “Methods, kits, and compositions for generating new hair follicles and growing hair” (Follica, Inc., priority 2006, dated 2012)
Entries after “also recorded” stand apart in the source; their conditions may differ.

What was measured:
[1] = test system: new HF formation by EDIHN in wounded skin; assay: whole-mount EDIHN assay after excisional wounding of mice; assay type: in vivo
Excerpt: Punch wound and excisional wound induction. The backs of 21-day-old mice were depilated as described for Example 1 and sterilized with alcohol, followed by 1% iodine solution. Punch wounds, 4 mm in diameter, were induced using a dermal biopsy punch, down to, but not through, the muscle fascia. Excisional wounds were full thickness and 1 cm in diameter; skin and panniculus carnosus was excised using fine surgical scissors.
Whole mounting and immunofluorescence. HF whole mounts were obtained by incubating fresh skin with EDTA (20 mM in PBS) at 37° C. overnight, then separating the epidermis and dermis. Epidermis was then fixed in 10% formalin for 10 min, room temperature (RT). Dermis was fixed in acetone overnight, RT. After rinsing with PBS, whole mounts were stained with antibodies for immunohistochemistry (schematically depicted in FIG. 12) and were imaged using a Leica confocal microscope.
21 day-old mice were wounded as described in previous Examples. Starting from day 11 after wounding, a time point corresponding to the point at which the wound had recently re-epithelialized, 10 mL of 1 mg/ml EGF was injected into the wound bed. EGF was injected once per day after this point for a total of 5 days. Three days later, the skin was collected, and whole-mount EDIHN assays were performed. […] In addition, whole mounts of control and treated skin were analyzed with anti-K17 antibody immunostaining. […] (FIGS. 25 C-D).
In an additional experiment, recombinant EGF (1 microgram (mcg)/microliter (mcl)) was injected at days 11, 13 and 15 after wounding. Skin was collected at 18 days after wounding and stained for K17 and alkaline phosphotase.
To determine the effect of administration of EGF receptor inhibitors on DIHN, the inhibitor AG1478 (150 μM in 10 μL volume) was administered as a single injection 11 days after incisional wounding (1 cm2) to the middle of the wound near the skin surface. […] Left panel: epidermis stained for K17, with three large hair follicles next to each other. Right panel: dermis stained for AP with large coalescing dermal papilla areas.

[2] = test system: hair re-growth in abraded areas; assay: hair re-growth after epidermal abrasion of mice; assay type: in vivo; settings: epidermis of mice abraded, then recombinant EGF administered
Excerpt: Depilation and epidermal abrasion. Mice were anesthetized with an injection of sodium pentobarbital before the hair on the back was clipped and depilated with Nair (Carter-Wallace, New York, N.Y.), then epidermis was removed using a rotating felt wheel as described by Argyris T, J. Invest. Dermatol. 75: 360 (1980). After scrubbing with 70% ethanol and drying under an incandescent lamp, the basal and supra-basal layers in an area of 1.5 cm^2/cm of the inter-follicular epidermis were removed by careful abrasion with a felt wheel mounted on a Dremel Moto-tool (Racine, Wis.). After abrasion, the skin was shiny and smooth, and there was no blood. One day later, the abraded area was covered by a fibrin crust, which fell off after 3-7 days, exposing the newly regenerated epidermis. A group of control mice was sacrificed immediately after abrasion to confirm microscopically the complete removal of the interfollicular epidermis.
Hair-bearing regions of the epidermis of mice is abraded, as described in Example 1, then administering recombinant EGF, as described in Example 1.

Compound	HF formation as assessed by gross morphology ([1]; 21 day-old mice, 10 mL of 1 mg/ml EGF injected into wound bed once per day for 5 days from day 11 after wounding, skin collected three days later)	new HF formation, whole mounts with anti-K17 antibody immunostaining ([1]; 21 day-old mice, EGF injected into wound bed once per day for 5 days from day 11 after wounding, n=4 vs control n=2)	EDIHN, skin stained for K17 and alkaline phosphotase ([1]; recombinant EGF 1 mcg/mcl injected at days 11, 13 and 15 after wounding, skin collected at 18 days)	hair re-growth in the abraded areas [2]	generation of hair follicles (number and size) compared with control mice that were wounded only ([1]; 150 μM in 10 μL, single injection 11 days after excisional wounding (1 cm diameter), middle of the wound)
EGF: epidermal growth factor, recombinant, injected into the wound bed	prevented HF formation	no new HF formation; also recorded: inhibits HF formation	inhibited EDIHN	prevents hair re-growth	–
COc1cc2ncnc(Nc3cccc(Cl)c3)c2cc1OC [AG1478, reference compound]	–	–	–	–	more and larger hair follicles; also recorded: more and larger HF
